Eleven molecules from ChEMBL document CHEMBL1201862, “PubChem BioAssay data set” (2004) can be followed below.

What all share (assay): growth of human tumour cells (NCI), 48 h
The test system of assay [1] is T47D.
Assay [2] deals with HOP-62.
The test system of assay [3] is UACC-257.
The test system of assay [4] is OVCAR-5.
The subject of assay [5] is CAKI-1.
Assay [6] relates to MOLT-4.
The test system of assay [7] is RXF 393.
In assay [8] the test system is HCT-116.
In assay [9] the test system is Malme-3M.
Assay [10] relates to SK-OV-3.
Assay [11] concerns KM12.
In assay [12] the test system is UO-31.
The test system of assay [13] is ACHN.
Assay [14] deals with K562.
For assay [15], the system named is OVCAR-8.
Assay [16] deals with NCI-H522.
The subject of assay [17] is HOP-92.
For assay [18], the system named is TK-10.
Assay [19] deals with LOX IMVI.
The subject of assay [20] is PC-3.

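Following 48 hours of exposure in 96-well plates, responses at five concentrations were used to interpolate endpoints linearly. GI50: concentration for 50% inhibition of growth.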 The source made the active and inactive calls. No stated cut-off is given here; in the data, active = GI50 up to about 1.1 µM and inactive = higher.

Regarding `CCOC(=O)Nc1cc2c(c(N)n1)N=C(c1ccc(OC)cc1)CN2`, the GI50 in assay [1] is 0.582 µM (active); in [2], 0.00015 µM (active); in assay [3], 0.186 µM (active); in assay [4] it was 0.0158 µM (active); in assay [5] it was < 0.0001 µM (active); in assay [6] it was < 0.0001 µM (active). The GI50 was 0.0112 µM (active) in [7]; 0.000251 µM (active) in [8]; 0.0101 µM (active) in [9]; 0.0385 µM (active) in assay [10]; 0.000446 µM (active) in assay [11]; 0.206 µM (active) in assay [12]. For the same molecule, the GI50 in assay [13] was 0.00104 µM (active); in [14], < 0.01 µM (active); in assay [15] it was 0.000895 µM (active); in assay [16], 0.00277 µM (active); in assay [17], 0.508 µM (active); in assay [18], 0.361 µM (active). In assay [19], the GI50 is 0.000315 µM (active).

Turning to `N[C@@H](CCC(=O)NC(Cc1ccccc1)C(=O)NCP(=O)(O)O)C(=O)O` (some centres undefined), the GI50 in [1], in [2], in assay [3], in assay [20], in [4] and in assay [6] was > 100 µM (inactive) each time. In addition, the GI50 in assay [8], in assay [9], in [11], in assay [12], in assay [13] and in [14] was > 100 µM (inactive) throughout. The GI50 in assay [15], in assay [16], in assay [18] and in assay [19] was > 100 µM (inactive) throughout.

Regarding `CN(C)/C=C1\CCc2ccc([N+](=O)[O-])cc2C1=O`, the GI50 was 26.7 µM (inactive) in assay [1]; > 100 µM (inactive) in assay [2]; 19.1 µM (inactive) in assay [3]; 30.6 µM (inactive) in assay [20]; > 100 µM (inactive) in assay [4]; > 100 µM (inactive) in assay [5]. The GI50 is 25.1 µM (inactive) in [6]; > 100 µM (inactive) in assay [7]; 17.9 µM (inactive) in [8]; 33 µM (inactive) in [9]; > 100 µM (inactive) in [10]; 55.8 µM (inactive) in assay [11]. Also, the GI50 in assay [12] is > 100 µM (inactive); in assay [13], > 100 µM (inactive); in [14], 24.4 µM (inactive); in assay [15], 45.7 µM (inactive); in assay [16], > 100 µM (inactive); in assay [18] it was > 100 µM (inactive). The GI50 in assay [19] is 19.6 µM (inactive).

Regarding `Cn1c(=O)n2c(=O)n(C)c(=O)n2c1=O`, the GI50 in [1], in assay [3], in [20], in assay [4], in assay [5] and in assay [6] was > 100 µM (inactive) each time. Moreover, the GI50 is > 100 µM (inactive) in [7]; 91.8 µM (inactive) in [8]; > 100 µM (inactive) in assay [9]; > 100 µM (inactive) in assay [10]; > 100 µM (inactive) in [11]; > 100 µM (inactive) in assay [12]. For the same molecule, the GI50 in assay [14], in assay [15], in assay [16], in assay [18] and in assay [19] was > 100 µM (inactive) each time.

On to `OC1CCC(COC(c2ccccc2)(c2ccccc2)c2ccccc2)O1` (centres undefined), for which the GI50 in assay [1] is 20.2 µM (inactive); in [2], 19.6 µM (inactive); in assay [3], 16.8 µM (inactive); in assay [20] it was 10.7 µM (inactive); in assay [4], 22.9 µM (inactive); in assay [5] it was 17.1 µM (inactive). For the same molecule, the GI50 was 11.1 µM (inactive) in [6]; 16.7 µM (inactive) in [8]; 17.9 µM (inactive) in assay [9]; 20.2 µM (inactive) in assay [10]; 17.7 µM (inactive) in [11]; 17.3 µM (inactive) in assay [12]. The GI50 in assay [13] is 17 µM (inactive); in assay [14] it was 14.8 µM (inactive); in [15], 17.9 µM (inactive); in [16], 17.7 µM (inactive); in [18], > 10 µM (inactive); in assay [19] it was 15.4 µM (inactive).

Take `COC(=O)c1ccc(OCc2ccc3nc(-c4ccccc4)c(Cl)nc3c2)cc1`: the GI50 in [1] is > 100 µM (inactive); in assay [2] it was 29.4 µM (inactive); in [3] it was > 100 µM (inactive); in assay [20], > 100 µM (inactive); in assay [4], > 100 µM (inactive); in assay [5] it was 28.6 µM (inactive). In addition, the GI50 was 91.6 µM (inactive) in [6]; 83 µM (inactive) in [8]; > 100 µM (inactive) in [11]; > 100 µM (inactive) in [12]; 48.8 µM (inactive) in assay [13]; 48 µM (inactive) in [15]. The GI50 in [16] is 11.8 µM (inactive); in assay [17], 28.1 µM (inactive); in assay [18], 58.2 µM (inactive); in assay [19], > 100 µM (inactive).

With `C[C@@H](NC(=O)Nc1cccc(C(=O)Nc2cc(C(C)(C)C)ccc2C(=O)O)n1)c1ccccc1`, the GI50 in assay [1] was 46 µM (inactive); in assay [2], 28.4 µM (inactive); in assay [20] it was 25.1 µM (inactive); in assay [4] it was 33.4 µM (inactive); in assay [5], 82.2 µM (inactive); in assay [6], 38 µM (inactive). The GI50 in assay [7] is 21.5 µM (inactive); in assay [8] it was 19.9 µM (inactive); in assay [9], 46.5 µM (inactive); in assay [10] it was 43.8 µM (inactive); in [11], 55.1 µM (inactive); in assay [12], 40.1 µM (inactive). The GI50 in [13] was 35.2 µM (inactive); in assay [14] it was 42.5 µM (inactive); in assay [15], 40.6 µM (inactive); in [16], 40.8 µM (inactive); in assay [19] it was 19.3 µM (inactive).

As for `CC1CC(OP(=O)(OCc2ccccc2)OCc2ccccc2)[C@@H](OCc2ccccc2)C(OCc2ccccc2)C1OCc1ccccc1` (some centres undefined), the GI50 in [1] was 41.8 µM (inactive); in assay [2] it was > 100 µM (inactive); in [3], 76.6 µM (inactive); in assay [20], 23.4 µM (inactive); in [4] it was > 100 µM (inactive); in [5], > 100 µM (inactive). Moreover, the GI50 in assay [6] was 11.6 µM (inactive); in assay [7] it was 0.0555 µM (active); in [8] it was 17.9 µM (inactive); in assay [9], 57.5 µM (inactive); in [10], > 100 µM (inactive); in assay [12] it was 15.5 µM (inactive). In addition, the GI50 was 43.9 µM (inactive) in [13]; 76.9 µM (inactive) in [14]; > 100 µM (inactive) in assay [15]; 81.8 µM (inactive) in assay [16]; 22.2 µM (inactive) in assay [18]; > 100 µM (inactive) in assay [19].

With `NC(=O)C(=Cn1c(=S)[nH]c2ccc([N+](=O)[O-])cc21)C(N)=O`, the GI50 in [1], in assay [2], in assay [3], in [4], in [5] and in assay [6] was > 100 µM (inactive) in each case. Also, the GI50 in assay [7], in [8], in assay [10], in assay [11], in [12] and in [13] was > 100 µM (inactive) in each case. The GI50 in assay [15], in [17], in [18] and in assay [19] was > 100 µM (inactive) each time.

Regarding `COc1ccc(CC/N=C2\OCc3ccccc32)cc1OC`, the GI50 was 27.5 µM (inactive) in [1]; > 100 µM (inactive) in assay [3]; 46.9 µM (inactive) in assay [20]; 62.4 µM (inactive) in assay [5]; 50.4 µM (inactive) in assay [6]; 24 µM (inactive) in [8]. Besides, the GI50 in assay [9] is 56.8 µM (inactive); in assay [10], 30.5 µM (inactive); in [11], 31.5 µM (inactive); in [12], 69 µM (inactive); in assay [13], 52.5 µM (inactive); in assay [14] it was 23.4 µM (inactive). Also, the GI50 in assay [15] is 91.8 µM (inactive); in [17] it was 31.2 µM (inactive); in assay [18], > 100 µM (inactive); in assay [19], 41.2 µM (inactive).

As for `OCC(O)C(Cl)CCl` (centres undefined), the GI50 in assay [1], in [2], in assay [3], in assay [20], in assay [4] and in assay [5] was > 100 µM (inactive) in each case. In addition, the GI50 in assay [6] is > 100 µM (inactive); in [8], > 100 µM (inactive); in [9], 31.5 µM (inactive); in assay [10] it was > 100 µM (inactive); in [11], > 100 µM (inactive); in assay [12] it was > 100 µM (inactive). The GI50 in assay [13], in assay [14], in [15], in assay [16] and in [18] was > 100 µM (inactive) in each case.
